Test results reported in publication PMC10898118, “Biocatalytic cascade to polysaccharide amination” (Biotechnology for Biofuels and Bioproducts, 2024).

Target: T1, CvATA (Chromobacterium violaceum, UniProt Q7NWG4)
T1 construct: gene CV_2025; dimer
T1 sequence (Q7NWG4 1-459): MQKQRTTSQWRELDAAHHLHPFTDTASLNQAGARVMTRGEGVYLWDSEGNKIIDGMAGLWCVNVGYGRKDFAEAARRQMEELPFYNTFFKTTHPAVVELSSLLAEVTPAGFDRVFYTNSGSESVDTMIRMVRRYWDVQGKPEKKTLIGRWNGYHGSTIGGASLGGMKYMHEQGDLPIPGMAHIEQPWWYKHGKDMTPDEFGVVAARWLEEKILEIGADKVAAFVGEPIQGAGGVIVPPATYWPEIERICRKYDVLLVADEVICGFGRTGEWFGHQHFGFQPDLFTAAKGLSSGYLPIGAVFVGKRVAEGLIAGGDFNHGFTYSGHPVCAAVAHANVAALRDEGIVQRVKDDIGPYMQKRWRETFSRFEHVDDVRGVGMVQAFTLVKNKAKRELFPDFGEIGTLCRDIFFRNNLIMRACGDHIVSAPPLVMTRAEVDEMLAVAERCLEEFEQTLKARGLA
Assay: acetophenone assay, UV […] nm
Assay type: biochemical
Conditions: 5 mM galactose pre-oxidized in situ by FgrGaOx (catalase, HRP), 5 mM (S)-1-phenylethylamine, 20 µM PLP, 50 mM HEPES pH 7.5, 37 °C

O=C[C@@H](O)[C@H](O)[C@H](O)[C@@H](O)C=O [oxidized galactose]
acetophenone assay, UV 245 nm: initial activity of CvATA on pyruvate and oxidized galactose
